In the assay the target is SARS-CoV-2 Main Protease (SARS-CoV-2) (UniProt P0DTD1).

Where “and” joins values, the source holds several entries; their conditions need not be identical. Equal values may be shown once.

The term IC50 denotes the midpoint of a concentration-inhibition curve. Higher therefore signals lower potency.

Take `CC12CC3CC(C)(C1)CC(Nc1cc(Cl)cc(CC(=O)Nc4cncc5ccccc45)c1)(C3)C2`: the IC50 was 1.58 µM.
Take `N#CC1(CS(=O)(=O)N2Cc3ccc(Cl)cc3[C@H](C(=O)Nc3cncc4ccccc34)C2)CCOCC1` (stereo in doubt): the concentration for half-maximal inhibition (IC50) was 0.06 µM and 0.0875 µM.
To `O=C(Cc1cc(Cl)cc(Nc2cccc(Br)n2)c1)Nc1cncc2ccccc12` belongs 1.92 µM; to `N#CC1(CS(=O)(=O)N2Cc3ccc(Cl)cc3C3(CCN(c4cncc5ccccc45)C3=O)C2)CCS(=O)(=O)CC1` (stereo unspecified), 0.211 µM.
`CCCCOc1ccc(Cl)cc1CC(=O)Nc1cnccc1C` came in with an IC50 of 24.8 µM.
The compound `CSCCNC(=O)C(c1cccnc1)N(C(=O)c1cocn1)c1ccc(C(C)(C)C)cc1` (stereo unspecified) came in with an IC50 of 2.45 µM.
As for `O=C(NC[C@@]1(C(=O)Nc2cncc3ccccc23)CCOc2ccc(Cl)cc21)[C@]1(O)CCSC1` (stereo in doubt), the figure is 1.94 µM; as for `CCCOc1c(Cl)cc(C(=O)N2CCC(C3CCNC3)CC2)cc1OCC` (stereo unspecified), greater than 99.5 µM.
The compound `Cc1cc(C(=O)CCl)c(C)n1NC(=O)c1n[nH]c(=O)c2ccccc12` displayed an IC50 of 6.05 µM.
As for `Cc1cc(C(F)(F)F)nc2c1c(N)nn2C(=O)C1CCOc2ccc(Cl)cc21` (stereo unspecified), the figure is greater than 99.5 µM; as for `CC(C)(C)c1ccc(N(C(=O)c2ccco2)C(C(=O)NCCc2cccc(F)c2)c2cnc3ccccn23)cc1` (stereo unspecified), 37.5 µM.
On to `Cc1nc2sccn2c1CN(C)C(=O)c1cnc2sccn2c1=O`, for which the IC50 is greater than 99.5 µM.
In turn, `CC(Cn1ccnc1C#N)c1cccc(Cl)c1` (stereo unspecified) had an IC50 greater than 99.5 µM.
As for `O=C(Nn1nnc2ccccc21)C(Cc1cccc(Cl)c1)c1ccc(N2CCCCC2=O)cc1` (stereo unspecified), the figure is 50.9 µM.
As for `COc1cccc(N2CCN(C(=O)c3cc(=O)[nH]c4ccccc34)CC2)c1`, the figure is 7.55 µM; as for `Cc1nc(C2CC2)oc1C(=O)N(c1ccc(C(C)(C)C)cc1)C(C(=O)NCCc1cccc(F)c1)c1cccnc1` (stereo unspecified), greater than 99.5 µM.
The compound `COC(=O)C(C)NC(=O)C(c1cccnc1)N(C(=O)c1cocn1)c1ccc(C(C)(C)C)cc1` (stereo unspecified) showed an IC50 of 7.18 µM.
To `Cn1ncc2cc(C(=O)NNc3nc4cccnc4s3)cnc21` belongs greater than 99.5 µM; to `COc1cc(Nc2cc(Cl)cc(CC(=O)Nc3cncc4ccccc34)c2)nc(OC)n1`, 2.21 µM; to `CN1CCN(C2CCN(c3cc(Cl)cc(CC(=O)Nc4cncc5ccccc45)c3)CC2)CC1`, 4.56 µM.
With `Cc1cc(N)ncc1NC(=O)Cc1cccc(Cl)c1`, the half-maximal inhibitory concentration (IC50) was greater than 99.5 µM.
In turn, `CCOC(=O)c1nc(S(C)(=O)=O)ncc1Cl` returned a half-inhibitory concentration (IC50) of 1.6 µM.
`Cc1cc(C)c(S(=O)(=O)N2CCCC2C(=O)Nc2ccc3[nH]c(=O)sc3c2)c(C)c1` (stereo unspecified) came in with an IC50 greater than 99.5 µM.
In turn, `COc1ccc(N(C(=O)c2cnc[nH]2)C(C(=O)NCCc2cccc(F)c2)c2cccnc2)cc1` (stereo unspecified) registered a concentration for half-maximal inhibition (IC50) of 93.7 µM. In other words, the double-digit micromolar range.
`CC(C)(C)NC(=O)CN1CC(C(=O)Nc2cncc3ccccc23)c2cc(Cl)ccc2C1=O` (stereo unspecified): the IC50 was 0.523 µM.
`O=C(NCCc1cccc(F)c1)C(c1cccnc1)N(Cc1ccccc1C1CCC1)C(=O)c1ccco1` (stereo unspecified) came in with an IC50 of 1.93 µM.
In turn, `Cn1c(=O)[nH]c2cncc(NC(=O)C3CCOc4ccc(Cl)cc43)c21` (stereo unspecified) showed an IC50 of 20.7 µM.
`Cc1ccncc1N1CCC(c2cccc(Cl)c2)S1(=O)=O` (stereo unspecified) gave an IC50 of 85 µM.
For `O=C(CCl)N1CCN(S(=O)(=O)c2cccc(F)c2)CC1`, the IC50 is 4.1 µM and 5.05 µM and 2.38 µM.
Regarding `CC(C)(C)OC(=O)N(c1cc(Cl)cc(CC(=O)Nc2cncc3ccccc23)c1)C1CNC1`, the IC50 came out at 2.03 µM. This lies in the single-digit micromolar range.
As to `O=c1c(O[C@@H]2O[C@H](CO)[C@H](O)[C@H](O)[C@H]2O)c(-c2ccc(O)c(O)c2)oc2cc(O)cc(O)c12` (stereo in doubt), the IC50 is greater than 99.5 µM.
To `Clc1ccc2c(c1)C1(CCO2)CCN(c2cncc3ccccc23)C1` (stereo unspecified) belongs greater than 99.5 µM; to `CC(C)S(=O)(=O)c1ccc(N(C(=O)c2cocn2)C(C(=O)NCCc2cccc(F)c2)c2cccnc2)cc1` (stereo unspecified), 66.1 µM; to `O=C(Cc1cc(Cl)cc(Nc2cccc(Cl)c2Br)c1)Nc1cncc2ccccc12`, 1.94 µM.
On to `O=C1N(c2cncc3ccccc23)CCC12CN(S(=O)(=O)N1CCC1)Cc1ccc(Cl)cc12` (stereo unspecified), for which the IC50 came out at 0.33 µM. This IC50 lies about 5.9-fold lower than the previous one.
`O=C(Nc1cncc2ccccc12)C(CO)c1ccc(Cl)c(Cl)c1` (stereo unspecified) had an IC50 of 19.3 µM. This IC50 lies about 58-fold higher than the previous one.
To `Cc1ccncc1NC(=O)N(Cc1ccccc1)c1cccc(Cl)c1` belongs 22.9 µM; to `O=C(CN(C(=O)Cn1ccnn1)c1ccc(-c2ccccn2)cc1)N1CCNCC1`, greater than 99.5 µM; to `CC(NC(=O)Cc1ccc(-n2cnnn2)cc1)(C(=O)Nc1cncc2ccccc12)c1ccc(Cl)c(Cl)c1` (stereo unspecified), 3.42 µM and 6.3 µM.
`CNC(=O)c1ccc2cncc(NC(=O)C3CN(S(=O)(=O)CC4(C#N)CC4)Cc4ccc(Cl)cc43)c2c1` (stereo unspecified) had a half-maximal inhibitory concentration (IC50) of 0.116 µM.
`CCn1nccc1C(=O)N1Cc2ccc(Cl)cc2C2(CCN(c3cncc4ccccc34)C2=O)C1` (stereo unspecified) had an IC50 of 0.297 µM.
In turn, `Cn1c(CNCC2(C(=O)Nc3cncc4ccccc34)CCOc3ccc(Cl)cc32)nc2c1c(=O)[nH]c(=O)n2C` (stereo unspecified) returned an IC50 greater than 99.5 µM.
For the compound `COc1cc(Nc2cc(Cl)cc(CC(=O)Nc3cncc4ccccc34)c2)cc(OC)c1`, the IC50 stood at 1.96 µM.
To `Cc1nc2cc(C(=O)NNc3ccnc4cccnc34)ccc2o1` belongs greater than 99.5 µM; to `O=C(Nc1cncc2ccncc12)[C@@H]1CCOc2cc(F)c(Cl)cc21` (stereo in doubt), 0.397 µM and 0.849 µM; to `Cc1cc(C)c(C#N)c(Sc2ncnc3c2nnn3Cc2ccccc2)n1`, 0.649 µM.
In turn, `CC(=O)Nc1ccc(Nc2cc(Cl)cc(CC(=O)Nc3cncc4ccccc34)c2)c(C(F)(F)F)c1` gave an IC50 of 2.09 µM.
Consider `O=C(NCCc1cccc(F)c1)C(c1cccnc1)N(C(=O)c1cocn1)c1ccc(OC2CCOC2)cc1` (stereo unspecified), for which the IC50 was 6.32 µM. This IC50 is about 3-fold higher than that of the compound before.
As for `O=C(CC1(C(=O)Nc2cncc3ccccc23)CCOc2ccc(Cl)cc21)N1CCC2C1CCCN2CCO` (stereo unspecified), the IC50 came out at 4.66 µM.
In the case of `C=CC(=O)N(c1ccc(C(C)(C)C)cc1)C(C(=O)NC(C)(C)C)c1cccnc1` (stereo unspecified), the IC50 is greater than 99 µM.
On to `CS(=O)(=O)Cc1ccc(N(C(=O)c2cnc[nH]2)C(C(=O)NCCc2cccc(F)c2)c2cccnc2)cc1` (stereo unspecified), for which the IC50 came to 41.1 µM.
`N#Cc1cnn(-c2ccc([N+](=O)[O-])cc2)c1Nc1cc(Cl)cc(CC(=O)Nc2cncc3ccccc23)c1` showed an IC50 of 1.84 µM.
`Cc1nc2ccc(NC(=O)Cn3ncn4nccc4c3=O)cc2s1` came in with an IC50 greater than 99.5 µM.
`NC(=O)c1ccc2c(NC(=O)Cc3cccc(Cl)c3)cncc2c1` displayed an IC50 of 1.59 µM.
The compound `O=C(Cc1cc(Cl)cc(Nc2nnc(C(F)(F)F)s2)c1)Nc1cncc2ccccc12` came in with an IC50 of 2.44 µM.
Take `Cc1ccc(S(=O)(=O)CNC(=O)C(c2cccnc2)N(C(=O)c2cocn2)c2ccc(C(C)(C)C)cc2)cc1` (stereo unspecified): the IC50 amounted to 62.9 µM. This IC50 lies about 26-fold higher than the previous one.
As for `CN(C1CC1)S(=O)(=O)N1Cc2ccc(Cl)cc2C(C(=O)Nc2cncc3ccccc23)C1` (stereo unspecified), the half-maximal inhibitory concentration (IC50) is 0.104 µM.
Turning to `O=C(Cc1cccc(Cl)c1)Nc1ncnc2ccccc12`, the IC50 was greater than 99.5 µM.
`Cc1cc(N2CCC(C)N(Cc3ccccc3)CC2)n2ncnc2n1` (stereo unspecified) had an IC50 greater than 99.5 µM.
Take `O=C(CN1Cc2ccc(Cl)cc2C(C(=O)Nc2cncc3ccccc23)C1)NC1CC1` (stereo unspecified): the IC50 is 0.076 µM and 0.099 µM and 0.186 µM.
As for `CCNC(=O)c1ccc(N(C(=O)c2cocn2)C(C(=O)NCCc2cccc(F)c2)c2cccnc2)cc1` (stereo unspecified), the IC50 is greater than 99.5 µM.
For the compound `Cc1cccc(C2CN(C(=O)CCl)Cc3ccccc32)c1` (stereo unspecified), the concentration for half-maximal inhibition (IC50) came to 2 µM. This lies in the single-digit micromolar range.
Turning to `COC(=O)[C@H]1CC[C@@H](CNC(C(=O)Nc2cncc3ccccc23)c2cccc(Cl)c2)O1` (stereo in doubt), the IC50 was determined as 1.72 µM.
Consider `O=C(Cc1cc(Cl)cc(N2CCN(c3ccccc3O)CC2)c1)Nc1cncc2ccccc12`, for which the concentration for half-maximal inhibition (IC50) was determined as 1.85 µM.
Compound `O=C(NCc1nnc2c(=O)[nH]ccn12)c1ccnc2ccnn12` returned an IC50 greater than 99.5 µM.
`CC(C)=CCC/C(C)=C/CC/C(C)=C/CC/C(C)=C/Cc1cc(O)cc2c1OC(=O)C2=C(C)C` had an IC50 greater than 99.5 µM.
For `O=C(Cc1cc(Cl)cc(NCCc2ccc(C(F)(F)F)cc2)c1)Nc1cncc2ccccc12`, the IC50 is 5.57 µM.
As to `CCS(=O)(=O)c1ccc(CNS(=O)(=O)c2cnc(-c3ccccc3)s2)s1`, the IC50 is greater than 99.5 µM.
As for `COc1ccc(N(C(C)=O)c2cc(Cl)cc(CC(=O)Nc3cncc4ccccc34)c2)cc1N`, the figure is 2.71 µM; as for `CC(C)(C)c1ccc(N(C(=O)c2ccco2)C(C(=O)NCCc2cccc(F)c2)c2coc3ccccc23)cc1` (stereo unspecified), greater than 99.5 µM; as for `O=C(Nc1cnn2ccccc12)C1CCS(=O)(=O)c2ccc(Cl)cc21` (stereo unspecified), 3.89 µM.
To `COc1cccc(CCNc2cc(Cl)cc(CC(=O)Nc3cncc4ccccc34)c2)c1` belongs 3.16 µM.
The compound `Cn1ccc2cc(N(C(=O)c3cnc[nH]3)C(C(=O)NCCc3cccc(F)c3)c3cccnc3)ccc21` (stereo unspecified) had an IC50 greater than 99 µM.
In turn, `Cn1cc(-c2cc(C(=O)N(c3ccc(C(C)(C)C)cc3)C(C(=O)NCCc3cccc(F)c3)c3cccnc3)on2)cn1` (stereo unspecified) returned an IC50 greater than 99.5 µM.
Compound `O=C(Cc1cc(Cl)cc(B(O)O)c1)Nc1cncc2ccccc12` had an IC50 of 4.74 µM.
Compound `COc1ccc(C(Cc2ccsc2)C(=O)Nc2n[nH]c3ccccc23)cc1` (stereo unspecified) came in with an IC50 greater than 99.5 µM.
`CN(c1ccc2c(NC(=O)C3CN(S(=O)(=O)CC4(C#N)CC4)Cc4ccc(Cl)cc43)cncc2c1)S(C)(=O)=O` (stereo unspecified) showed an IC50 of 0.232 µM. This counts as sub-micromolar.
Regarding `Cc1cc(O)ncc1NC(=O)C1CCOc2ccc(Cl)cc21` (stereo unspecified), the concentration for half-maximal inhibition (IC50) was greater than 99.5 µM.
In turn, `COCCc1ccc(Cl)cc1CN1CCN(C(=O)CCl)CC1` showed a half-inhibitory concentration (IC50) of 2.2 µM.
Take `C=CC(=O)N(Cc1ccccc1Cl)C(C(=O)NC)c1cccnc1` (stereo unspecified): the IC50 is greater than 99.5 µM.
Compound `O=C(Cn1nnc2ccccc21)N(Cc1cccc(Cl)c1)c1ccc(N2CCOCC2)cc1` registered an IC50 of 3.7 µM.
To `O=C(Cc1cc(Cl)cc(NCc2c(Cl)cccc2Cl)c1)Nc1cncc2ccccc12` belongs 2.71 µM; to `O=C(Cn1nnc2ccccc21)N(Cc1ccccn1)c1cnc(-c2ccccc2)nc1`, greater than 99.5 µM.
For `O=C(Cc1cc(Cl)cc(NCc2ccc(Oc3ccccc3)cc2)c1)Nc1cncc2ccccc12`, the half-inhibitory concentration (IC50) worked out at 5.82 µM.
`CCc1ccc2c(c1)C(=O)C(=O)N2CC(=O)O` gave an IC50 greater than 99.5 µM.
As for `CC1CN(C(=O)CC2(C(=O)Nc3cncc4ccccc34)CCOc3ccc(Cl)cc32)CCN1CCO` (stereo unspecified), the IC50 is greater than 99.5 µM.
